A value given as a limit tells only on which side of the number the result lay.

From patent US11331369B2, “Endoparasitic depsipeptides” (Zoetis Services LLC, priority 2017, dated 2022) come the findings set out here.

Holding throughout (format): cell-based
Assay [1] deals with microfilariae of Dirofilaria immitis. The assay is described as follows: Dirofilaria immitis, Microfilaria (DiMF) In vitro Assay. Particulars: 72 h, read-out: DiMF Minimum Effective Dose (MED), approximately 72 hours incubation, microfilariae assessed for survival or paralysis.
Assay [2] has as its system third stage larvae of Haemonchus contortus. The assay is described as follows: Haemonchus contortus L3 (HcL3) Assay. Particulars: 96 h, read-out: HcL3 Minimum Effective Dose (MED).
For assay [3], the system named is 4th stage larvae (L4) of Dirofilaria immitis. In words: Dirofilaria immitis, L4 Stage (DiL4) In Vitro Assay. Particulars: Dirofilaria immitis, 72 h, read-out: DiL4 Minimum Effective Dose (MED), approximately 72 hours incubation; L4 larvae assessed for survival or paralysis.

On to `Cc1ncc(-c2ccnn2Cc2ccc(C[C@H]3OC(=O)[C@H](CC(C)C)N(C)C(=O)[C@@H](C)OC(=O)[C@H](CC(C)C)N(C)C(=O)[C@@H](Cc4ccc(Cn5nccc5-c5cnc(C)nc5)cc4)OC(=O)[C@H](CC(C)C)N(C)C(=O)[C@@H](C)OC(=O)[C@H](CC(C)C)N(C)C3=O)cc2)cn1` [Example 1b-207, (3S,6R,9S,12R,15S,18R,21S,24R)-3,9,15,21-tetraisobutyl-4,6,10,16,18,22-hexamethyl-12,24-bis(4-((5-(2-methylpyrimidin-5-yl)-1H-pyrazol-1-yl)methyl)benzyl)-1,7,13,19-tetraoxa-4,10,16,22-tetraazacyclotetracosan-2,5,8,11,14,17,20,23-octaone], for which the minimal effective concentration in assay [1] lay in the range of 0.001 to 0.01 µM; in assay [2] it was 1 to 10 µM; in assay [3], 0.001 to 0.01 µM.
As for `COc1ccc(-c2ccnn2Cc2ccc(C[C@H]3OC(=O)[C@H](CC(C)C)N(C)C(=O)[C@@H](C)OC(=O)[C@H](CC(C)C)N(C)C(=O)[C@@H](Cc4ccc(Cn5nccc5-c5ccc(OC)nc5)cc4)OC(=O)[C@H](CC(C)C)N(C)C(=O)[C@@H](C)OC(=O)[C@H](CC(C)C)N(C)C3=O)cc2)cn1` [Example 1b-190, (3S,6R,9S,12R,15S,18R,21S,24R)-3,9,15,21-tetraisobutyl-6,18-bis(4-((5-(6-methoxypyridin-3-yl)-1H-pyrazol-1-yl)methyl)benzyl)-4,10,12,16,22,24-hexamethyl-1,7,13,19-tetraoxa-4,10,16,22-tetraazacyclotetracosan-2,5,8,11,14,17,20,23-octaone], the minimal effective concentration was in the range of 0.001 to 0.01 µM in assay [1], 1 to 10 µM in assay [2] and 0.0001 to 0.001 µM in assay [3].
For the compound `C#Cc1cnn(Cc2ccc(C[C@H]3OC(=O)[C@H](CC(C)C)N(C)C(=O)[C@@H](C)OC(=O)[C@H](CC(C)C)N(C)C(=O)[C@@H](Cc4ccccc4)OC(=O)[C@H](CC(C)C)N(C)C(=O)[C@@H](C)OC(=O)[C@H](CC(C)C)N(C)C3=O)cc2)c1` [Example 2-51, (3S,6R,9S,12R,15S,18R,21S,24R)-6-benzyl-18-(4-((4-ethynyl-1H-pyrazol-1-yl)methyl)benzyl)-3,9,15,21-tetraisobutyl-4,10,12,16,22,24-hexamethyl-1,7,13,19-tetraoxa-4,10,16,22-tetraazacyclotetracosan-2,5,8,11,14,17,20,23-octaone], the minimal effective concentration lay in the range of 0.001 to 0.01 µM in assay [1], 1 to 10 µM in assay [2] and 0.0001 to 0.001 µM in assay [3].
For `CC(C)C[C@H]1C(=O)O[C@H](Cc2ccc(Cn3cnc(Br)c3)cc2)C(=O)N(C)[C@@H](CC(C)C)C(=O)O[C@H](C)C(=O)N(C)[C@@H](CC(C)C)C(=O)O[C@H](Cc2ccccc2)C(=O)N(C)[C@@H](CC(C)C)C(=O)O[C@H](C)C(=O)N1C` [Example 8-15, (3S,6R,9S,12R,15S,18R,21S,24R)-6-benzyl-18-(4-((4-bromo-1H-imidazol-1-yl)methyl)benzyl)-3,9,15,21-tetraisobutyl-4,10,12,16,22,24-hexamethyl-1,7,13,19-tetraoxa-4,10,16,22-tetraazacyclotetracosan-2,5,8,11,14,17,20,23-octaone], in that order: 0.001 to 0.01 µM, 1 to 10 µM and 0.0001 to 0.001 µM.
The corresponding values for `CC(C)C[C@H]1C(=O)O[C@H](Cc2ccc(Cn3cc(Br)cn3)cc2)C(=O)N(C)[C@@H](CC(C)C)C(=O)O[C@H](C)C(=O)N(C)[C@@H](CC(C)C)C(=O)O[C@H](Cc2ccc(Cn3cccn3)cc2)C(=O)N(C)[C@@H](CC(C)C)C(=O)O[C@H](C)C(=O)N1C` [Example 1a-16, (3S,6R,9S,12R,15S,18R,21S,24R)-6-(4-((1H-pyrazol-1-yl)methyl)benzyl)-18-(4-((4-bromo-1H-pyrazol-1-yl)methyl)benzyl)-3,9,15,21-tetraisobutyl-4,10,12,16,22,24-hexamethyl-1,7,13,19-tetraoxa-4,10,16,22-tetraazacyclotetracosan-2,5,8,11,14,17,20,23-octaone] are 0.001 to 0.01 µM, 1 to 10 µM and 0.0001 to 0.001 µM.
With `CC(C)C[C@H]1C(=O)O[C@H](Cc2cccc(Cn3ccnc3Cl)c2)C(=O)N(C)[C@@H](CC(C)C)C(=O)O[C@H](C)C(=O)N(C)[C@@H](CC(C)C)C(=O)O[C@H](Cc2ccc(Cn3ccnc3Cl)cc2)C(=O)N(C)[C@@H](CC(C)C)C(=O)O[C@H](C)C(=O)N1C` [Example 7-9, (3S,6R,9S,12R,15S,18R,21S,24R)-6-(3-((2-chloro-1H-imidazol-1-yl)methyl)benzyl)-18-(4-((2-chloro-1H-imidazol-1-yl)methyl)benzyl)-3,9,15,21-tetraisobutyl-4,10,12,16,22,24-hexamethyl-1,7,13,19-tetraoxa-4,10,16,22-tetraazacyclotetracosan-2,5,8,11,14,17,20,23-octaone], the minimal effective concentration in assay [1] was 0.001 to 0.01 µM; in assay [2], 1 to 10 µM; in assay [3] it was 0.0001 to 0.001 µM.
On to `CCOc1cnn(Cc2ccc(C[C@H]3OC(=O)[C@H](CC(C)C)N(C)C(=O)[C@@H](C)OC(=O)[C@H](CC(C)C)N(C)C(=O)[C@@H](Cc4ccc(Cn5ncc(OCC)c5C)cc4)OC(=O)[C@H](CC(C)C)N(C)C(=O)[C@@H](C)OC(=O)[C@H](CC(C)C)N(C)C3=O)cc2)c1C` [Example 1b-197, (3S,6R,9S,12R,15S,18R,21S,24R)-6,18-bis[[4-[(4-ethoxy-5-methyl-pyrazol-1-yl)methyl]phenyl]methyl]-3,9,15,21-tetraisobutyl-4,10,12,16,22,24-hexamethyl-1,7,13,19-tetraoxa-4,10,16,22-tetrazacyclotetracosane-2,5,8,11,14,17,20,23-octaone], for which the figures for the minimal effective concentration in assay [1], in assay [2] and in assay [3] were 0.001 to 0.01 µM, 1 to 10 µM and 0.001 to 0.01 µM, respectively.
Consider `CC(C)C[C@H]1C(=O)O[C@H](Cc2ccc(Cn3cc(F)cn3)cc2)C(=O)N(C)[C@@H](CC(C)C)C(=O)O[C@H](C)C(=O)N(C)[C@@H](CC(C)C)C(=O)O[C@H](Cc2ccccc2)C(=O)N(C)[C@@H](CC(C)C)C(=O)O[C@H](C)C(=O)N1C` [Example 2-28, (3S,6R,9S,12R,15S,18R,21S,24R)-6-benzyl-18-(4-((4-fluoro-1H-pyrazol-1-yl)methyl)benzyl)-3,9,15,21-tetraisobutyl-4,10,12,16,22,24-hexamethyl-1,7,13,19-tetraoxa-4,10,16,22-tetraazacyclotetracosan-2,5,8,11,14,17,20,23-octaone], for which the values for the minimal effective concentration in assay [1], in assay [2] and in assay [3] were 0.001 to 0.01 µM, 1 to 10 µM and 0.0001 to 0.001 µM, respectively.
For `CC(C)C[C@H]1C(=O)O[C@H](Cc2ccc(Cn3nccc3C3CC3C)cc2)C(=O)N(C)[C@@H](CC(C)C)C(=O)O[C@H](C)C(=O)N(C)[C@@H](CC(C)C)C(=O)O[C@H](Cc2ccc(Cn3nccc3C3CC3C)cc2)C(=O)N(C)[C@@H](CC(C)C)C(=O)O[C@H](C)C(=O)N1C` (stereo partly drawn) [Example 1b-222, (3S,6R,9S,12R,15S,18R,21S,24R)-3,9,15,21-tetraisobutyl-4,6,10,16,18,22-hexamethyl-12,24-bis(4-((5-(2-methylcyclopropyl)-1H-pyrazol-1-yl)methyl)benzyl)-1,7,13,19-tetraoxa-4,10,16,22-tetraazacyclotetracosan-2,5,8,11,14,17,20,23-octaone], in that order: 0.01 to 0.1 µM, at most 1 µM and 0.0001 to 0.001 µM.
The corresponding values for `COCOc1cnn(Cc2ccc(C[C@H]3OC(=O)[C@H](CC(C)C)N(C)C(=O)[C@@H](C)OC(=O)[C@H](CC(C)C)N(C)C(=O)[C@@H](Cc4ccc(Cn5cc(OCOC)cn5)cc4)OC(=O)[C@H](CC(C)C)N(C)C(=O)[C@@H](C)OC(=O)[C@H](CC(C)C)N(C)C3=O)cc2)c1` [Example 1b-201, (3S,6R,9S,12R,15S,18R,21S,24R)-3,9,15,21-tetraisobutyl-6,18-bis[[4-[[4-(methoxymethoxy)pyrazol-1-yl]methyl]phenyl]methyl]-4, 10,12,16,22,24-hexamethyl-1,7,13,19-tetraoxa-4,10,16,22-tetrazacyclotetracosane-2,5,8,11,14,17,20,23-octaone] are 0.001 to 0.01 µM, 1 to 10 µM and 0.001 to 0.01 µM.
`CCC#Cc1cnn(Cc2ccc(C[C@H]3OC(=O)[C@H](CC(C)C)N(C)C(=O)[C@@H](C)OC(=O)[C@H](CC(C)C)N(C)C(=O)[C@@H](Cc4ccc(Cn5cc(C#CCC)cn5)cc4)OC(=O)[C@H](CC(C)C)N(C)C(=O)[C@@H](C)OC(=O)[C@H](CC(C)C)N(C)C3=O)cc2)c1` [Example 1b-119, (3S,6R,9S,12R,15S,18R,21S,24R)-6,18-bis(4-((4-(but-1-yn-1-yl)-1H-pyrazol-1-yl)methyl)benzyl)-3,9,15,21-tetraisobutyl-4,10,12,16,22,24-hexamethyl-1,7,13,19-tetraoxa-4,10,16,22-tetraazacyclotetracosan-2,5,8,11,14,17,20,23-octaone]: the minimal effective concentration in assay [1] is 0.001 to 0.01 µM; in assay [2], 10 to 100 µM; in assay [3], at most 0.0001 µM.
As to `CC(C)C[C@H]1C(=O)O[C@H](Cc2ccc(Cn3nccc3C3(F)CC3)cc2)C(=O)N(C)[C@@H](CC(C)C)C(=O)O[C@H](C)C(=O)N(C)[C@@H](CC(C)C)C(=O)O[C@H](Cc2ccc(Cn3nccc3C3(F)CC3)cc2)C(=O)N(C)[C@@H](CC(C)C)C(=O)O[C@H](C)C(=O)N1C` [Example 1b-215, (3S,6R,9S,12R,15S,18R,21S,24R)-6,18-bis(4-((5-(1-fluorocyclopropyl)-1H-pyrazol-1-yl)methyl)benzyl)-3,9,15,21-tetraisobutyl-4,10,12,16,22,24-hexamethyl-1,7,13,19-tetraoxa-4,10,16,22-tetraazacyclotetracosan-2,5,8,11,14,17,20,23-octaone], the minimal effective concentration in assay [1] is 0.001 to 0.01 µM; in assay [2], at most 1 µM; in assay [3], 0.0001 to 0.001 µM.
